Laboratory results as given in patent US12715849B2, “Herbicidal tetrazole compounds” (SYNGENTA CROP PROTECTION AG, priority 2020, dated 2026).

What was measured:
Assay type in all cases: in vivo
[1] = test system: Ablution theophrasti (ABUTH); test: Glasshouse herbicidal test, pre- and post-emergence (Table B1); conditions: 130 g/h, evaluated after 13 days; for percentage damage caused to the plant, POST Application ABUTH: post-emergence; for percentage damage caused to the plant, PRE Application ABUTH: pre-emergence
Experimental: (§1) Seeds of a variety of test species are sown in standard soil in pots (Lolium perenne (LOLPE), Amaranthus retoflexus (AMARE), Amaranthus palmeri (AMAPA), Ablution theophrasti (ABUTH), Setaria faberi (SETFA), Echinochloa crus-galli (ECHCG), Ipomoea hederacea (IPOHE)). After cultivation for one day (pre-emergence) or after 8 days cultivation (post-emergence) under controlled conditions in a glasshouse (at 24/16° C., day/night; 14 hours light; 65% humidity), the plants are sprayed with an aqueous spray solution derived from the formulation of the technical active ingredient in acetone/water (50:50) solution containing 0.5% Tween 20 (polyoxyethelyene sorbitan monolaurate, CAS RN 9005-64-5). Compounds are applied at 130 g/h unless otherwise indicated. The test plants are then grown in a glasshouse under controlled conditions in a glasshouse (at 24/16° C., day/night; 14 hours light; 65% humidity) and watered twice daily. After 13 days for pre and post-emergence, the test is evaluated for the percentage damage caused to the plant. The biological activities are shown in the following table on a five-point scale (5=80-100%; 4=60-79%; 3=40-59%; 2=20-39%; 1=0-19%).

[2] = test system: Amaranthus retoflexus (AMARE); test: as above; conditions: 130 g/h, evaluated after 13 days; for percentage damage caused to the plant, POST Application AMARE: post-emergence; for percentage damage caused to the plant, PRE Application AMARE: pre-emergence
Experimental: as §1

[3] = test system: Echinochloa crus-galli (ECHCG); test: as above; conditions: 130 g/h, evaluated after 13 days; for percentage damage caused to the plant, POST Application ECHCG: post-emergence; for percentage damage caused to the plant, PRE Application ECHCG: pre-emergence
Experimental: as §1

[4] = test system: Ipomoea hederacea (IPOHE); test: as above; conditions: 130 g/h, evaluated after 13 days; for percentage damage caused to the plant, POST Application IPOHE: post-emergence; for percentage damage caused to the plant, PRE Application IPOHE: pre-emergence
Experimental: as §1

[5] = test system: Setaria faberi (SETFA); test: as above; conditions: 130 g/h, evaluated after 13 days; for percentage damage caused to the plant, POST Application SETFA: post-emergence; for percentage damage caused to the plant, PRE Application SETFA: pre-emergence
Experimental: as §1

[6] = test system: Amaranthus palmeri (AMAPA); test: as above; conditions: 130 g/h, evaluated after 13 days; for percentage damage caused to the plant, POST Application AMAPA: post-emergence; for percentage damage caused to the plant, PRE Application AMAPA: pre-emergence
Experimental: as §1

[7] = test system: AMARE (Amaranthus retoflexus); test: Comparative test, pre-emergence (Table B2); conditions: after 14 days
[8] = test system: ECHCG (Echinochloa crus-galli); test: Comparative test, pre-emergence (Table B2); conditions: after 14 days
[9] = test system: SETFA (Setaria faberi); test: Comparative test, pre-emergence (Table B2); conditions: after 14 days
[10] = test system: IPOHE (Ipomoea hederacea); test: Comparative test, pre-emergence (Table B2); conditions: after 14 days

Compound | percentage damage caused to the plant, POST Application ABUTH [1] | percentage damage caused to the plant, PRE Application ABUTH [1] | percentage damage caused to the plant, POST Application AMARE [2] | percentage damage caused to the plant, PRE Application AMARE [2] | percentage damage caused to the plant, POST Application ECHCG [3] | percentage damage caused to the plant, PRE Application ECHCG [3] | percentage damage caused to the plant, POST Application IPOHE [4] | percentage damage caused to the plant, PRE Application IPOHE [4] | percentage damage caused to the plant, POST Application SETFA [5] | percentage damage caused to the plant, PRE Application SETFA [5] | percentage damage caused to the plant, POST Application AMAPA [6] | percentage damage caused to the plant, PRE Application AMAPA [6] | damage to plant (100 = total damage; 0 = no damage), PRE Application AMARE ([7]; rate 31 g/ha) | damage to plant (100 = total damage; 0 = no damage), PRE Application AMARE ([7]; rate 130 g/ha) | damage to plant (100 = total damage; 0 = no damage), PRE Application ECHCG ([8]; rate 31 g/ha) | damage to plant (100 = total damage; 0 = no damage), PRE Application ECHCG ([8]; rate 130 g/ha) | damage to plant (100 = total damage; 0 = no damage), PRE Application SETFA ([9]; rate 31 g/ha) | damage to plant (100 = total damage; 0 = no damage), PRE Application SETFA ([9]; rate 130 g/ha) | damage to plant (100 = total damage; 0 = no damage), PRE Application IPOHE ([10]; rate 31 g/ha) | damage to plant (100 = total damage; 0 = no damage), PRE Application IPOHE ([10]; rate 130 g/ha)
CC(C)S(=O)(=O)Nc1c(OC(F)F)ccc(C(=O)Nc2nnnn2C)c1Cl [Compound 1.013] | 5 (5=80-100%) | 5 (5=80-100%) | 5 (5=80-100%) | 5 (5=80-100%) | 5 (5=80-100%) | 5 (5=80-100%) | 5 (5=80-100%) | 5 (5=80-100%) | 5 (5=80-100%) | 4 (4=60-79%) | – | – | – | – | – | – | – | – | – | –
CCn1nnnc1NC(=O)c1ccc(OC(F)F)c(NS(C)(=O)=O)c1Cl [Compound 1.059] | 5 (5=80-100%) | 5 (5=80-100%) | 5 (5=80-100%) | 5 (5=80-100%) | 5 (5=80-100%) | 5 (5=80-100%) | 5 (5=80-100%) | 2 (2=20-39%) | 5 (5=80-100%) | 4 (4=60-79%) | – | – | – | – | – | – | – | – | – | –
CCS(=O)(=O)Nc1c(OC(F)F)ccc(C(=O)Nc2nnnn2C)c1Cl [Compound 1.064] | 5 (5=80-100%) | 5 (5=80-100%) | 5 (5=80-100%) | 5 (5=80-100%) | 5 (5=80-100%) | 5 (5=80-100%) | 4 (4=60-79%) | 2 (2=20-39%) | 5 (5=80-100%) | 4 (4=60-79%) | 5 (5=80-100%) | 5 (5=80-100%) | – | – | – | – | – | – | – | –
Cn1nnnc1NC(=O)c1ccc(OC(F)F)c(NS(C)(=O)=O)c1Cl [Compound 1.065] | – | 5 (5=80-100%) | 5 (5=80-100%) | 5 (5=80-100%) | – | 4 (4=60-79%) | 4 (4=60-79%) | 2 (2=20-39%) | 5 (5=80-100%) | 3 (3=40-59%) | – | – | – | – | – | – | – | – | – | –
Cn1nnnc1NC(=O)c1ccc(OC(F)F)c(NS(=O)(=O)C2CC2)c1Cl [Compound 1.067] | 5 (5=80-100%) | 5 (5=80-100%) | 4 (4=60-79%) | 5 (5=80-100%) | 5 (5=80-100%) | 4 (4=60-79%) | 5 (5=80-100%) | 4 (4=60-79%) | 5 (5=80-100%) | 3 (3=40-59%) | – | – | – | – | – | – | – | – | – | –
Cc1c(C(=O)Nc2nnnn2C)ccc(OC(F)(F)F)c1NS(C)(=O)=O [Compound 1.075] | – | – | 5 (5=80-100%) | 5 (5=80-100%) | 5 (5=80-100%) | 5 (5=80-100%) | 5 (5=80-100%) | 3 (3=40-59%) | 5 (5=80-100%) | 4 (4=60-79%) | – | 5 (5=80-100%) | 80 | 100 | 60 | 90 | 30 | 60 | 40 | 50
CCS(=O)(=O)Nc1c(OC(F)(F)F)ccc(C(=O)Nc2nnnn2C)c1C [Compound 1.081] | – | – | 5 (5=80-100%) | 5 (5=80-100%) | 5 (5=80-100%) | 5 (5=80-100%) | 5 (5=80-100%) | 3 (3=40-59%) | 5 (5=80-100%) | 5 (5=80-100%) | 5 (5=80-100%) | 5 (5=80-100%) | 90 | 100 | 60 | 90 | 20 | 80 | 40 | 50
